Values after ≈ are worked out from the molar mass of the structure shown.

The data set is described as follows: physchem. As to conditions: water, thermodynamic from solid.

The term solubility denotes the dissolved amount per volume that the medium holds. Read a low solubility as a poorly soluble substance. For `C/C(=N\C#N)N(C)Cc1ccc(Cl)nc1` [crystalline acetamiprid, acetamiprid], the solubility at 24 h worked out at 2.75 mg/mL (≈ 12.3 mM).

Values taken from patent publication US9173391B2, “Crystalline complexes of 4-hydroxy benzoic acid and selected pesticides” (BASF SE, priority 2009, dated 2015).
